The record followed here is ChEMBL document CHEMBL1799950, “Antituberculosis cycloartane triterpenoids from Radermachera boniana” (J Nat Prod, 2011).

In brackets after ≈: the same amount, converted by molar mass.

The subject of data set [1] is Mycobacterium tuberculosis. The data set can be described thus: Antitubercular activity against Mycobacterium tuberculosis H37Rv ATCC 27294 after 7 days by microplate alamar blue assay. The format is functional. The settings on record: H37Rv ATCC 27294, 168 h. A general note: Alamar Blue is a resazurin reagent that responds to reducing activity.
For data set [2], the system named is Vero. Description: Cytotoxicity against african green monkey Vero cells after 72 hrs by MTS assay. The format is cell-based. The following applies: Chlorocebus sabaeus. (In general: Tetrazolium dyes change colour on reduction, which living cells bring about.)
The subject of data set [3] is Vero. The data set can be described thus: Cytotoxicity against african green monkey Vero cells at 200 uM after 72 hrs by MTS assay. The following applies: chlorocebus sabaeus. The format is cell-based.

The term MIC denotes the least concentration at which growth counts as inhibited. The molecule `CC(=O)O[C@H]1CC[C@]2(C)[C@H]3CC=C4[C@H]5[C@](C(=O)O)(CC[C@@H](C)[C@@]5(C)O)CC[C@@]4(C)[C@]3(C)C[C@@H](O)[C@H]2C1(C)C` came in with an MIC in data set [1] of 75.5 µM (≈ 40.1 µg/mL).

Regarding `CC(=O)O[C@@H]1CC[C@@]2(C)[C@@H](CC[C@]3(C)[C@@H]2CC=C2[C@@H]4CC(C)(C)CC[C@]4(C)CC[C@]23C)[C@@]1(C)C(=O)O`, in data set [1], the minimum inhibitory concentration (MIC) worked out at 94.8 µM (≈ 47.3 µg/mL).

As for `CC1(C)CC[C@]2(C(=O)O)CC[C@]3(C)C(=CC[C@@H]4[C@@]5(C)CC[C@@H](O)C(C)(C)[C@@H]5CC[C@]43C)[C@@H]2C1`, the MIC in data set [1] was > 200 µM.

On to `CC[C@H](CC[C@@H](C)[C@H]1CC[C@H]2[C@@H]3CC=C4CC(=O)CC[C@]4(C)[C@H]3CC[C@]12C)C(C)C` [BETA-SITOSTENONE], for which the MIC in data set [1] stood at 39.5 µM (≈ 16.3 µg/mL).

In turn, `CC(=O)O[C@H]1CC[C@]23C[C@]24CC[C@]2(C)[C@@H]([C@H](C)CCC=C(C)C)CC[C@@]2(C)[C@@H]4CC[C@H]3[C@]1(C)C(=O)O` [BONIANIC ACID A] gave an MIC in data set [1] of 34.8 µM (≈ 17.4 µg/mL).

The term IC50 denotes the point on the concentration scale where inhibition reaches its midpoint. In data set [1], `CC(=O)O[C@H]1CC[C@]23C[C@]24CC[C@]2(C)[C@@H]([C@H](C)CCC(=O)C(C)C)CC[C@@]2(C)[C@@H]4CC[C@H]3[C@]1(C)C(=O)O` [BONIANIC ACID B] returned an MIC of 9.9 µM (≈ 5.1 µg/mL). The half-inhibitory concentration (IC50) with Vero [2] worked out at 74.2 µM.

Regarding `CC(C)[C@@H](C)/C=C/[C@@H](C)[C@H]1CC[C@@H]2[C@]1(C)CC[C@H]1[C@]23C=C[C@]2(C[C@@H](O)CC[C@]12C)OO3` [ERGOSTEROL PEROXIDE], the MIC in data set [1] is 3.5 µM (≈ 1.5 µg/mL). Besides, the Activity entry in the data set on Vero [3] is reported as “Non-toxic”.

Molecule `CC1(C)CC[C@]2(C(=O)O)CC[C@]3(C)C(=CC[C@@H]4[C@@]5(C)CC[C@H](O)C(C)(C)[C@@H]5CC[C@]43C)[C@@H]2C1` [OLEANOLIC_ACID] showed an MIC in data set [1] of 96.5 µM (≈ 44.1 µg/mL).

In turn, `CO[C@H]1/C=C/O[C@@]2(C)Oc3c(C)c(O)c4c(O)c(c(/C=N/N5CCN(C)CC5)c(O)c4c3C2=O)NC(=O)/C(C)=C\C=C\[C@H](C)[C@H](O)[C@@H](C)[C@@H](O)[C@@H](C)[C@H](OC(C)=O)[C@@H]1C` [RIFAMPIN] returned an MIC in data set [1] of 0.14 µM (≈ 0.115 µg/mL).

In turn, `C[C@H]1[C@H](C)CC[C@]2(C(=O)O)CC[C@]3(C)C(=CC[C@@H]4[C@@]5(C)CC[C@H](O)C(C)(C)[C@@H]5CC[C@]43C)[C@H]12` [URSOLIC ACID] gave an MIC in data set [1] of 94.8 µM (≈ 43.3 µg/mL).
